Structures are written as SMILES. Where only a bound is given, the exact number is not on record here.

This test addresses T1, His-tagged full-length RSK2 (RPS6KA3) (Homo sapiens, UniProt P51812).
T1 construct: His-tagged full-length RSK2 (RPS6KA3, Invitrogen PV3323); His; purchased Invitrogen PV3323
As to the kind of experiment: RSK2 Omnia Assay for compound IC50 determination. It counts as biochemical. Particulars: ATP 15 μM, n=2, read-out: Mean RSK2 Biochem IC50. In a few lines:
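Initial-rate slopes from continuous kinetic reads were fitted to a four-parameter equation for IC50 (n=2). Ki was then derived by Cheng-Prusoff assuming ATP-competitive inhibition. Reactions contained 15 μM ATP (Km 16.3 μM), 5 μM Omnia ST Peptide 6, and […] in 50 mM HEPES pH 7.5, 10 mM MgCl2, 1 mM DTT, 1% DMSO. Compounds spanned 11 threefold steps, […] final.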

T1 sequence (P51812 whole entry): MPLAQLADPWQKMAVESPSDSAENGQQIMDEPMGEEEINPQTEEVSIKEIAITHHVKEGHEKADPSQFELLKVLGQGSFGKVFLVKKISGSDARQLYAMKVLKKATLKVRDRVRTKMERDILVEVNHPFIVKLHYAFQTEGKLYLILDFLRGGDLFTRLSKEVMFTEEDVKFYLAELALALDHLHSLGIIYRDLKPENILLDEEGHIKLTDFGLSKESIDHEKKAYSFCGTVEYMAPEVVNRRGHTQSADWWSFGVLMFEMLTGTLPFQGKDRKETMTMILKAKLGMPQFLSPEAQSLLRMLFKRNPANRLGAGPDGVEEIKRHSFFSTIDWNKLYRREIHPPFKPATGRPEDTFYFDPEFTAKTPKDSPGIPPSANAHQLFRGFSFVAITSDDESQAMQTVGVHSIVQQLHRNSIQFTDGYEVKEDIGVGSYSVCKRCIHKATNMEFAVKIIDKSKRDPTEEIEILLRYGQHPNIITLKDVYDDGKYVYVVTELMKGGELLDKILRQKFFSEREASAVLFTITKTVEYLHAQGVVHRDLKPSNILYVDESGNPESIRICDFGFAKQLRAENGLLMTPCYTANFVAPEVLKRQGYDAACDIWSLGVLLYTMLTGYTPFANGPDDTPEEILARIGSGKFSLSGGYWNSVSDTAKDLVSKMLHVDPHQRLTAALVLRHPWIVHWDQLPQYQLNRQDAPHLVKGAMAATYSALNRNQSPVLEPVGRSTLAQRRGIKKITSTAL

With `C[C@@H]1C(=O)N(c2cccc(C#N)c2)c2cnc(Nc3ccc4[nH]nc(F)c4c3F)nc2N1C1CCCCC1` [compound 144, 3-[(7R)-8-cyclohexyl-2-[(3,4-difluoro-1H-indazol-5-yl)amino]-7-methyl-6-oxo-7,8-dihydropteridin-5(6H)-yl]benzonitrile], the IC50 is not above 100 nM.

Consider `CCOc1ccc(N2C(=O)[C@@H](C)N(C3CCC(F)(F)CC3)c3nc(Nc4cc(F)c5[nH]c(=O)oc5c4)ncc32)cc1C#N` [compound 280, 5-[(7R)-8-(4,4-difluorocyclohexyl)-2-[(4-fluoro-2-oxo-2,3-dihydro-1,3-benzoxazol-6-yl)amino]-7-methyl-6-oxo-7,8-dihydropteridin-5(6H)-yl]-2-ethoxybenzonitrile], for which the half-inhibitory concentration (IC50) was not above 100 nM.

Regarding `C[C@@H]1C(=O)N(c2cccc(C#N)c2)c2cnc(Nc3ccc4[nH]ncc4c3)nc2N1C1CCC(F)(F)CC1` [compound 261, 3-[(7R)-8-(4,4-difluorocyclohexyl)-2-(1H-indazol-5-ylamino)-7-methyl-6-oxo-7,8-dihydropteridin-5(6H)-yl]benzonitrile], the IC50 is not above 100 nM.

For the compound `CC(C)CCN1c2nc(Nc3cc(F)c(O)c(F)c3)ncc2N(c2ccccc2)C(=O)C1C` (stereo not shown) [Example 2, 2-[(3,5-difluoro-4-hydroxyphenyl)amino]-7-methyl-8-(3-methylbutyl)-5-phenyl-7,8-dihydropteridin-6(5H)-one], the concentration for half-maximal inhibition (IC50) is not above 100 nM.

With `CCOc1ccc(N2C(=O)[C@@H](C)N(C3CCOCC3)c3nc(Nc4cc(F)c5[nH]ncc5c4)ncc32)cc1C#N` [compound 195, 2-Ethoxy-5-[(7R)-2-[(7-fluoro-1H-indazol-5-yl)amino]-7-methyl-6-oxo-8-(tetrahydro-2H-pyran-4-yl)-7,8-dihydropteridin-5(6H)-yl]benzonitrile], the IC50 is not above 100 nM.

For `C[C@@H]1C(=O)N(c2ccccc2)c2cnc(Nc3ccc4[nH]ncc4c3)nc2N1Cc1ccccc1` [Example 76, (7R)-8-benzyl-2-(1H-indazol-5-ylamino)-7-methyl-5-phenyl-7,8-dihydropteridin-6(5H)-one], the IC50 is not above 100 nM.

As for `CC[C@@H]1C(=O)N(c2cccc(F)c2)c2cnc(Nc3cc(F)c4[nH]ncc4c3)nc2N1C1CCCCC1` [compound 290, (7R)-8-cyclohexyl-7-ethyl-2-[(7-fluoro-1H-indazol-5-yl)amino]-5-(3-fluorophenyl)-7,8-dihydropteridin-6(5H)-one], the IC50 is not above 100 nM.

Turning to `COc1ccc(N2C(=O)[C@@H](C)N([C@H]3CC[C@H](C(F)(F)F)CC3)c3nc(Nc4cc(F)c5[nH]ncc5c4)ncc32)cc1OC` [compound 258, (7R)-5-(3,4-dimethoxyphenyl)-2-[(7-fluoro-1H-indazol-5-yl)amino]-7-methyl-8-[trans-4-(trifluoromethyl)cyclohexyl]-7,8-dihydropteridin-6(5H)-one], the half-maximal inhibitory concentration (IC50) was not above 100 nM.

Consider `COc1ccc(N2C(=O)[C@@H](C)N(C3CCCCC3)c3nc(Nc4cnc5[nH]ncc5c4)ncc32)cc1C#N` [compound 164, 5-[(7R)-8-cyclohexyl-7-methyl-6-oxo-2-(1H-pyrazolo[3,4-b]pyridin-5-ylamino)-7,8-dihydropteridin-5(6H)-yl]-2-methoxybenzonitrile], for which the IC50 was not above 100 nM.

In the case of `CO[C@H]1CC[C@H](N2c3nc(Nc4cnc5[nH]ncc5c4)ncc3N(c3cccc(C#N)c3)C(=O)[C@H]2C)CC1` [compound 231, 3-[(7R)-8-(trans-4-methoxycyclohexyl)-7-methyl-6-oxo-2-(1H-pyrazolo[3,4-b]pyridin-5-ylamino)-7,8-dihydropteridin-5(6H)-yl]benzonitrile], the IC50 is not above 100 nM.

For `C[C@@H]1C(=O)N(c2cccnc2)c2cnc(Nc3cc(F)c4[nH]ncc4c3)nc2N1C1CCC2(CC1)CC2` [Example 298, (7R)-2-[(7-fluoro-1H-indazol-5-yl)amino]-7-methyl-5-(pyridin-3-yl)-8-(spiro[2.5]oct-6-yl)-7,8-dihydropteridin-6(5H)-one], the concentration for half-maximal inhibition (IC50) was not above 100 nM.

With `C[C@@H]1C(=O)N(c2csc(C(=O)O)c2)c2cnc(Nc3ccc4[nH]ncc4c3)nc2N1C1CCCCC1` [compound 124, 4-[(7R)-8-cyclohexyl-2-(1H-indazol-5-ylamino)-7-methyl-6-oxo-7,8-dihydropteridin-5(6H)-yl]thiophene-2-carboxylic acid], the IC50 was not above 100 nM.

Regarding `CC(C)Oc1ccc(N2C(=O)[C@@H](C)N(C3CCOCC3)c3nc(Nc4cnc5[nH]ncc5c4)ncc32)cc1C#N` [compound 202, 5-[(7R)-7-methyl-6-oxo-2-(1H-pyrazolo[3,4-b]pyridin-5-ylamino)-8-(tetrahydro-2H-pyran-4-yl)-7,8-dihydropteridin-5(6H)-yl]-2-(propan-2-yloxy)benzonitrile], the half-inhibitory concentration (IC50) was not above 100 nM.

For `CC(C)CCN1c2nc(Nc3ccc4[nH]ncc4c3)ncc2N(c2ccccc2)C(=O)C1(C)C` [Example 70, 2-(1H-indazol-5-ylamino)-7,7-dimethyl-8-(3-methylbutyl)-5-phenyl-7,8-dihydropteridin-6(5H)-one], the IC50 was not above 100 nM.

Regarding `CC(C)CCN1c2nc(Nc3ccc(C(=O)O)cc3)ncc2N(c2ccccc2)C(=O)C1C` (stereo not shown) [Example 14, 4-{[7-methyl-8-(3-methylbutyl)-6-oxo-5-phenyl-5,6,7,8-tetrahydropteridin-2-yl]amino}benzoic acid], the IC50 was not above 100 nM.

For the compound `C[C@@H]1C(=O)N(c2ccc(NS(C)(=O)=O)cc2)c2cnc(Nc3ccc4[nH]ncc4c3)nc2N1C1CCCCC1` [Example 47, N-{4-[(7R)-8-cyclohexyl-2-(1H-indazol-5-ylamino)-7-methyl-6-oxo-7,8-dihydropteridin-5(6H)-yl]phenyl}methanesulfonamide], the half-inhibitory concentration (IC50) was not above 100 nM.

Consider `CC1C(=O)N(c2ccccc2)c2cnc(Nc3ccc4[nH]ncc4c3)nc2N1C1CCCC1` (stereo not shown) [Example 64, 8-cyclopentyl-2-(1H-indazol-5-ylamino)-7-methyl-5-phenyl-7,8-dihydropteridin-6(5H)-one], for which the IC50 was not above 100 nM.

As to `COc1cc(N2C(=O)[C@@H](C)N(C3CCCCC3)c3nc(Nc4ccc5[nH]ncc5c4)ncc32)ccc1C` [compound 125, (7R)-8-cyclohexyl-2-(1H-indazol-5-ylamino)-5-(3-methoxy-4-methylphenyl)-7-methyl-7,8-dihydropteridin-6(5H)-one], the IC50 was not above 100 nM.

In the case of `C[C@@H]1C(=O)N(c2cccc(C#N)c2)c2cnc(Nc3cnc4[nH]ncc4c3)nc2N1C1CCCCC1` [compound 152, 3-[(7R)-8-cyclohexyl-7-methyl-6-oxo-2-(1H-pyrazolo[3,4-b]pyridin-5-ylamino)-7,8-dihydropteridin-5(6H)-yl]benzonitrile], the IC50 was not above 100 nM.

Consider `COc1ccc(N2C(=O)[C@@H](C)N(C3CCC(C)(C)CC3)c3nc(Nc4cc(F)c5[nH]ncc5c4)ncc32)cc1OC` [Example 210, (7R)-5-(3,4-dimethoxyphenyl)-8-(4,4-dimethylcyclohexyl)-2-[(7-fluoro-1H-indazol-5-yl)amino]-7-methyl-7,8-dihydropteridin-6(5H)-one], for which the IC50 is not above 100 nM.

In the case of `CC(C)CCn1c(=O)c(=O)n(-c2ccccc2)c2cnc(Nc3ccc4c(c3)CC(=O)N4)nc21` [Example 306, 8-(3-methylbutyl)-2-[(2-oxo-2,3-dihydro-1H-indol-5-yl)amino]-5-phenyl-5,8-dihydropteridine-6,7-dione], the IC50 is more than 1000 nM.

On to `C[C@@H]1C(=O)N(c2cccc(C#N)c2)c2cnc(Nc3ccc(F)c4[nH]ncc34)nc2N1C1CCCCC1` [compound 107, 3-[(7R)-8-cyclohexyl-2-[(7-fluoro-1H-indazol-4-yl)amino]-7-methyl-6-oxo-7,8-dihydropteridin-5(6H)-yl]benzonitrile], for which the IC50 lay in the range of 100 to 1000 nM.

`CCOc1ccc(N2C(=O)[C@@H](C)N(C3CCC(F)(F)CC3)c3nc(Nc4ccc5[nH]c(=O)oc5c4)ncc32)cc1C#N` [compound 284, 5-[(7R)-8-(4,4-difluorocyclohexyl)-7-methyl-6-oxo-2-[(2-oxo-2,3-dihydro-1,3-benzoxazol-6-yl)amino]-7,8-dihydropteridin-5(6H)-yl]-2-ethoxybenzonitrile]: the IC50 was 100 to 1000 nM.

As for `C[C@@H]1C(=O)N(c2cccc(C#N)c2)c2cnc(Nc3cc(Cl)c4[nH]ncc4c3)nc2N1C1CCCCC1` [compound 97, 3-[(7R)-2-[(7-chloro-1H-indazol-5-yl)amino]-8-cyclohexyl-7-methyl-6-oxo-7,8-dihydropteridin-5(6H)-yl]benzonitrile], the IC50 is not above 100 nM.

In the case of `C[C@@H]1C(=O)N(c2ccccc2)c2cnc(Nc3ccc4[nH]ncc4c3)nc2N1CCN(C)C` [Example 73, (7R)-8-[2-(dimethylamino)ethyl]-2-(1H-indazol-5-ylamino)-7-methyl-5-phenyl-7,8-dihydropteridin-6(5H)-one], the IC50 is more than 1000 nM.

As to `C[C@@H]1C(=O)N(c2cccc(C#N)c2)c2cnc(Nc3cc(F)c4[nH]ncc4c3)nc2N1C1CCCCC1` [compound 106, 3-[(7R)-8-cyclohexyl-2-[(7-fluoro-1H-indazol-5-yl)amino]-7-methyl-6-oxo-7,8-dihydropteridin-5(6H)-yl]benzonitrile], the IC50 is not above 100 nM.

As for `C[C@@H]1C(=O)N(c2cccc(F)c2)c2cnc(Nc3ccc4[nH]ncc4c3)nc2N1C1CCCCC1` [Example 25, (7R)-8-cyclohexyl-5-(3-fluorophenyl)-2-(1H-indazol-5-ylamino)-7-methyl-7,8-dihydropteridin-6(5H)-one], the IC50 was not above 100 nM.

Take `N#Cc1cccc(N2C(=O)[C@@H](CF)N(C3CCCC3)c3nc(Nc4ccc5[nH]ncc5c4)ncc32)c1` [Example 222, 3-[(7S)-8-cyclopentyl-7-(fluoromethyl)-2-(1H-indazol-5-ylamino)-6-oxo-7,8-dihydropteridin-5(6H)-yl]benzonitrile]: the IC50 was not above 100 nM.

By IC50 is commonly meant the concentration that gives 50% inhibition.

Source of the values: patent US9351974B2, “Substituted pteridinones for the treatment of cancer” (OSI Pharmaceuticals, LLC, priority 2011, dated 2016).
